Test results reported in US20040142971A1, “BENZOTHIOPHENE COMPOUNDS HAVING ANTIINFECTIVE ACTIVITY” (GeneSoft, Inc., priority 2001, published 2004).

Key:
Test in all cases: MIC, NCCLS broth microdilution
[1] = system: S. pneumoniae ATCC 51422 (penicillin resistant strain, PRSP); assay type: cell-based, Streptococcus pneumoniae; settings: H = S. pneumoniae ATCC 51422
Text: (§1) In vitro biological activity data were collected for a variety of microorganisms, including Bacillus cereus (ATCC 11778), Staphylococcus aureus (ATCC 27660 (a methicillin resistant strain (MRSA), ATCC 33591 and ATCC 43300); ATCC 13709, a methicillin sensitive strain (MSSA)); Streptococcus pneumoniae (ATCC 51422, a penicillin resistant strain (PRSP)), Enterococcus faecium (ATCC 51559, a vancomycin resistant strain (VRE)), and Staphylococcus epidermidis (ATCC 700586, a methycillin resistant strain (MRSE)). Additionally, antifungal activity data were collected for Candida albicans (ATCC 38247). Minimal inhibition concentrations (MIC's) were determined using the National Committee for Clinical Laboratory Standards (NCCLS) broth microdilution assay in microtiter plates, as set forth in: (1) the guidelines of the National Committee for Clinical Laboratory Standards (NCCLS) Document M7-A4 (NCCLS, 1997); (2) the guidelines of the National Committee for Clinical Laboratory Standards (NCCLS) Document M11-A4 (NCCLS, 1997); and (3) the guidelines and reference method of the National Committee for Clinical Laboratory Standards (NCCLS) Document M27-T (NCCLS, 1995). For antifungal essays, the method recommended in Murray, PR., 1995 Manual of Clinical Microbiology (ASM Press, Washington, D.C.), was employed.

[2] = system: E. faecium ATCC 51559 (vancomycin resistant strain, VRE); assay type: cell-based, Enterococcus faecium; settings: B = E. faecium ATCC 51559
Text: as §1

[3] = system: S. epidermidis ATCC 700586 (methycillin resistant strain, MRSE); assay type: cell-based, Staphylococcus epidermidis; settings: G = S. epidermidis ATCC 700586
Text: as §1

B. Cereus ATCC 11778 = assay type: cell-based, Bacillus cereus; settings: A = B. Cereus ATCC 11778
Text: as §1

[4] = system: S. aureus ATCC 13709 (methicillin sensitive strain, MSSA); assay type: cell-based, Staphylococcus aureus; settings: C = S. aureus ATCC 13709
Text: as §1

[5] = system: S. aureus ATCC 27660 (methicillin resistant strain, MRSA); assay type: cell-based, Staphylococcus aureus; settings: D = S. aureus ATCC 27660
Text: as §1

S. aureus ATCC 33591 = assay type: cell-based, Staphylococcus aureus; settings: E = S. aureus ATCC 33591
Text: as §1

| Structure (SMILES) | Minimum Inhibitory Concentration (MIC) [1] | Minimum Inhibitory Concentration (MIC) [2] | Minimum Inhibitory Concentration (MIC) [3] | Minimum Inhibitory Concentration (MIC) (B. Cereus ATCC 11778) | Minimum Inhibitory Concentration (MIC) [4] | Minimum Inhibitory Concentration (MIC) [5] | Minimum Inhibitory Concentration (MIC) (S. aureus ATCC 33591) |
| --- | --- | --- | --- | --- | --- | --- | --- |
| Cn1cc(NC(=O)c2cc(NC(=O)c3cc(NC(=O)c4sc5cc6c(cc5c4Cl)OCO6)cn3C)cn2C)cc1C(=O)NCCN1CCOCC1 [Ib-20d] | +++ (+++ = MIC ≦ 4) | +++ (+++ = MIC ≦ 4) | +++ (+++ = MIC ≦ 4) | +++ (+++ = MIC ≦ 4) | +++ (+++ = MIC ≦ 4) | +++ (+++ = MIC ≦ 4) | +++ (+++ = MIC ≦ 4) |
| Cn1cc(NC(=O)c2cc(NC(=O)c3sc4cc5c(cc4c3Cl)OCO5)cn2C)cc1C(=O)NCCN1CCOCC1 [Ib-20e] | +++ (+++ = MIC ≦ 4) | +++ (+++ = MIC ≦ 4) | +++ (+++ = MIC ≦ 4) | +++ (+++ = MIC ≦ 4) | +++ (+++ = MIC ≦ 4) | +++ (+++ = MIC ≦ 4) | +++ (+++ = MIC ≦ 4) |
| Cn1cc(NC(=O)c2cc(NC(=O)c3cc(NC(=O)c4sc5cc6c(cc5c4Cl)OCO6)cn3C)cn2C)cc1C(=O)NCCN1CCCC1 [Ib-20g] | +++ (+++ = MIC ≦ 4) |  | +++ (+++ = MIC ≦ 4) | +++ (+++ = MIC ≦ 4) | +++ (+++ = MIC ≦ 4) | +++ (+++ = MIC ≦ 4) | +++ (+++ = MIC ≦ 4) |
| CN1CCCC1CCNC(=O)c1cc(NC(=O)c2cc(NC(=O)c3cc(NC(=O)c4sc5cc6c(cc5c4Cl)OCO6)cn3C)cn2C)cn1C (stereo not drawn) [Ib-20m] | +++ (+++ = MIC ≦ 4) | +++ (+++ = MIC ≦ 4) | +++ (+++ = MIC ≦ 4) | +++ (+++ = MIC ≦ 4) | +++ (+++ = MIC ≦ 4) | +++ (+++ = MIC ≦ 4) | +++ (+++ = MIC ≦ 4) |
| Cn1cc(NC(=O)c2sc3cc4c(cc3c2Cl)OCO4)cc1C(=O)NCCN1CCCC1 [Ib-20o] | +++ (+++ = MIC ≦ 4) | +++ (+++ = MIC ≦ 4) | +++ (+++ = MIC ≦ 4) | +++ (+++ = MIC ≦ 4) | +++ (+++ = MIC ≦ 4) | +++ (+++ = MIC ≦ 4) | +++ (+++ = MIC ≦ 4) |
| Cn1cc(NC(=O)c2sc3cc4c(cc3c2Cl)OCO4)cc1C(=O)NCCN1CCSCC1 [Ib-20p] | +++ (+++ = MIC ≦ 4) | +++ (+++ = MIC ≦ 4) | +++ (+++ = MIC ≦ 4) | +++ (+++ = MIC ≦ 4) | +++ (+++ = MIC ≦ 4) | +++ (+++ = MIC ≦ 4) | +++ (+++ = MIC ≦ 4) |
| CN1CCN(CCCNC(=O)c2cc(NC(=O)c3sc4cc5c(cc4c3Cl)OCO5)cn2C)CC1 [Ib-20r] | +++ (+++ = MIC ≦ 4) | +++ (+++ = MIC ≦ 4) | +++ (+++ = MIC ≦ 4) | +++ (+++ = MIC ≦ 4) | +++ (+++ = MIC ≦ 4) | +++ (+++ = MIC ≦ 4) | +++ (+++ = MIC ≦ 4) |
| Cn1cc(NC(=O)c2cc3ccccc3cn2)cc1C(=O)Nc1cc(C(=O)Nc2cc(C(=O)NCCN3CCOCC3)n(CCN3CCOCC3)c2)n(C)c1 [Ib-56] | +++ (+++ = MIC ≦ 4) | +++ (+++ = MIC ≦ 4) | +++ (+++ = MIC ≦ 4) | >32 µg/mL | +++ (+++ = MIC ≦ 4) | +++ (+++ = MIC ≦ 4) | +++ (+++ = MIC ≦ 4) |
| Cn1cc(NC(=O)c2cc(NC(=O)c3cc4ccccc4cn3)no2)cc1C(=O)OCCN1CCOCC1 [Ib-61] | +++ (+++ = MIC ≦ 4) | +++ (+++ = MIC ≦ 4) | +++ (+++ = MIC ≦ 4) | +++ (+++ = MIC ≦ 4) | +++ (+++ = MIC ≦ 4) | +++ (+++ = MIC ≦ 4) | +++ (+++ = MIC ≦ 4) |
| Cn1cc(NC(=O)c2cc(NC(=O)c3cc(NC(=O)c4cc5ccccc5cn4)c[nH]3)cn2C)cc1C(=O)NCCN1CCCCC1 [Ib-62] | +++ (+++ = MIC ≦ 4) | +++ (+++ = MIC ≦ 4) | +++ (+++ = MIC ≦ 4) | + (+ = MIC from 12 to 32, inclusive) | +++ (+++ = MIC ≦ 4) | +++ (+++ = MIC ≦ 4) | +++ (+++ = MIC ≦ 4) |
| Cc1cc(NC(=O)c2cc(NC(=O)c3cc(NC(=O)c4cc5ccccc5cn4)cn3C)cn2CCN2CCOCC2)sn1 [Ib-63] | +++ (+++ = MIC ≦ 4) | +++ (+++ = MIC ≦ 4) | +++ (+++ = MIC ≦ 4) | +++ (+++ = MIC ≦ 4) | +++ (+++ = MIC ≦ 4) | +++ (+++ = MIC ≦ 4) | +++ (+++ = MIC ≦ 4) |
| Cc1cc(NC(=O)c2cc(NC(=O)c3cc(NC(=O)c4cc5ccccc5cn4)cn3C)cn2CCN2CCCC2)sn1 [Ib-65] | +++ (+++ = MIC ≦ 4) | +++ (+++ = MIC ≦ 4) | +++ (+++ = MIC ≦ 4) | +++ (+++ = MIC ≦ 4) | +++ (+++ = MIC ≦ 4) | +++ (+++ = MIC ≦ 4) | +++ (+++ = MIC ≦ 4) |
| Cc1cc(NC(=O)c2cc(NC(=O)c3cc(NC(=O)c4cc5ccccc5cn4)cn3C)cn2CCCN(C)C)sn1 [Ib-66] | +++ (+++ = MIC ≦ 4) | +++ (+++ = MIC ≦ 4) | +++ (+++ = MIC ≦ 4) | +++ (+++ = MIC ≦ 4) | +++ (+++ = MIC ≦ 4) | +++ (+++ = MIC ≦ 4) | +++ (+++ = MIC ≦ 4) |
| Cn1cc(NC(=O)c2cc(NC(=O)c3cc(NC(=O)c4cc5ccccc5cn4)cn3C)c[nH]2)cc1C(=O)NCCN1CCOCC1 [Ib-67] | +++ (+++ = MIC ≦ 4) | +++ (+++ = MIC ≦ 4) | +++ (+++ = MIC ≦ 4) | +++ (+++ = MIC ≦ 4) | +++ (+++ = MIC ≦ 4) | +++ (+++ = MIC ≦ 4) | +++ (+++ = MIC ≦ 4) |
| Cn1cc(NC(=O)c2cc3ccccc3cn2)cc1C(=O)Nc1cc(C(=O)Nc2cc(C(=O)NCCN3CCCCC3)n(CCN3CCCCC3)c2)n(C)c1 [Ib-68] | +++ (+++ = MIC ≦ 4) | +++ (+++ = MIC ≦ 4) | +++ (+++ = MIC ≦ 4) | +++ (+++ = MIC ≦ 4) | +++ (+++ = MIC ≦ 4) | +++ (+++ = MIC ≦ 4) | +++ (+++ = MIC ≦ 4) |
| Cn1cc(NC(=O)c2cc(NC(=O)c3cc(NC(=O)c4cc5ccccc5cn4)c[nH]3)cn2C)cc1C(=O)NCCc1ccccn1 [Ib-69] | +++ (+++ = MIC ≦ 4) | +++ (+++ = MIC ≦ 4) | +++ (+++ = MIC ≦ 4) | >32 µg/mL | +++ (+++ = MIC ≦ 4) | +++ (+++ = MIC ≦ 4) | +++ (+++ = MIC ≦ 4) |
